Source: ChEMBL document CHEMBL3885861, “Open TG-GATES”

Species: Rattus norvegicus
Assay: Open TG-GATES - Regimen: Daily Repeat
Type: toxicity, organism-based, Sprague-Dawley
Parameters: regimen Daily Repeat, gender Male, age 6 weeks
Conditions: in vivo, po, 300 mg/kg, route gavage, dose level High; for APTT / Bas / Eos / Fbg / Hb / Ht / Lym / MCH / MCHC / MCV / Mono / Neu / PT / Plat / RBC / Ret / WBC: tissue Blood; for KIDNEY_L / KIDNEY_R / KIDNEY_TOTAL: tissue Kidney; for LIVER: tissue Liver; for A/G / ALP / ALT / AST / BUN / CRE / Ca / Cl / DBIL / GLC / IP / K / LDH / Na / PL / RALB / TBIL / TC / TG / TP / gamma-GTP: tissue Plasma

Structure (SMILES): O=C(O)COc1nn(Cc2ccccc2)c2ccccc12 [BENDAZAC]
- TERMINAL_BW (72 h, time 3 day): 223.3 g
- APTT (72 h, time 3 day): 19 s
- Bas (72 h, time 3 day): 0%
- Eos (72 h, time 3 day): 0.8%
- Fbg (72 h, time 3 day): 218 mg/dL
- Hb (72 h, time 3 day): 14.2 g/dL
- Ht (72 h, time 3 day): 42%
- Lym (72 h, time 3 day): 75.2%
- MCH (72 h, time 3 day): 21.6 pg
- MCHC (72 h, time 3 day): 33.7%
- MCV (72 h, time 3 day): 64.2 fL
- Mono (72 h, time 3 day): 9.2%
- Neu (72 h, time 3 day): 14.4%
- PT (72 h, time 3 day): 12.3 s
- Plat (72 h, time 3 day): 133.3 x10_4/uL
- RBC (72 h, time 3 day): 655.2 x10_4/ul
- Ret (72 h, time 3 day): 6.2%
- WBC (72 h, time 3 day): 109.6 x10_2/uL
- KIDNEY_L (72 h, time 3 day): 1 g
- KIDNEY_R (72 h, time 3 day): 1.1 g
- KIDNEY_TOTAL (72 h, time 3 day): 2.1 g
- LIVER (72 h, time 3 day): 13.4 g
- A/G (72 h, time 3 day): 2.3
- ALP (72 h, time 3 day): 1088.6 IU/L
- ALT (72 h, time 3 day): 44.4 IU/L
- AST (72 h, time 3 day): 75.8 IU/L
- BUN (72 h, time 3 day): 17.4 mg/dL
- CRE (72 h, time 3 day): 0.6 mg/dL
- Ca (72 h, time 3 day): 10.8 mg/dL
- Cl (72 h, time 3 day): 103.6 meq/L
- DBIL (72 h, time 3 day): 0.076 mg/dL
- GLC (72 h, time 3 day): 192.6 mg/dL
- IP (72 h, time 3 day): 5.8 mg/dL
- K (72 h, time 3 day): 4.4 meq/L
- LDH (72 h, time 3 day): 141.8 IU/L
- Na (72 h, time 3 day): 140.4 meq/L
- PL (72 h, time 3 day): 131 mg/dL
- RALB (72 h, time 3 day): 3.8 g/dL
- TBIL (72 h, time 3 day): 0.8 mg/dL
- TC (72 h, time 3 day): 66.2 mg/dL
- TG (72 h, time 3 day): 68.8 mg/dL
- TP (72 h, time 3 day): 5.5 g/dL
- gamma-GTP (72 h, time 3 day): 1.2 IU/L
- TERMINAL_BW ([…], time 7 day): 261 g
- TERMINAL_BW ([…], time 14 day): 307.2 g
- TERMINAL_BW ([…], time 28 day): 410 g
- APTT ([…], time 7 day): 20.2 s
- Bas ([…], time 7 day): 0%
- Eos ([…], time 7 day): 0.8%
- Fbg ([…], time 7 day): 207.6 mg/dL
- Hb ([…], time 7 day): 13.8 g/dL
- Ht ([…], time 7 day): 40.6%
- Lym ([…], time 7 day): 83%
- MCH ([…], time 7 day): 21.5 pg
- MCHC ([…], time 7 day): 34%
- MCV ([…], time 7 day): 63.3 fL
- Mono ([…], time 7 day): 5.2%
- Neu ([…], time 7 day): 11.4%
- PT ([…], time 7 day): 12.6 s
- Plat ([…], time 7 day): 132.2 x10_4/uL
- RBC ([…], time 7 day): 641.6 x10_4/ul
- Ret ([…], time 7 day): 6.1%
- WBC ([…], time 7 day): 123 x10_2/uL
- APTT ([…], time 14 day): 18.9 s
- Bas ([…], time 14 day): 0%
- Eos ([…], time 14 day): 0.6%
- Fbg ([…], time 14 day): 213.6 mg/dL
- Hb ([…], time 14 day): 14.7 g/dL
- Ht ([…], time 14 day): 43%
- Lym ([…], time 14 day): 83%
- MCH ([…], time 14 day): 20.9 pg
- MCHC ([…], time 14 day): 34%
- MCV ([…], time 14 day): 61.3 fL
- Mono ([…], time 14 day): 5.6%
- Neu ([…], time 14 day): 10.8%
- PT ([…], time 14 day): 11.7 s
- Plat ([…], time 14 day): 128.4 x10_4/uL
- RBC ([…], time 14 day): 702.2 x10_4/ul
- Ret ([…], time 14 day): 3%
- WBC ([…], time 14 day): 117.7 x10_2/uL
- APTT ([…], time 28 day): 21 s
- Bas ([…], time 28 day): 0%
- Eos ([…], time 28 day): 1%
- Fbg ([…], time 28 day): 216.5 mg/dL
- Hb ([…], time 28 day): 14.8 g/dL
- Ht ([…], time 28 day): 43.9%
- Lym ([…], time 28 day): 83.2%
- MCH ([…], time 28 day): 19.5 pg
- MCHC ([…], time 28 day): 33.8%
- MCV ([…], time 28 day): 57.8 fL
- Mono ([…], time 28 day): 5.5%
- Neu ([…], time 28 day): 10.8%
- PT ([…], time 28 day): 13.5 s
- Plat ([…], time 28 day): 114.5 x10_4/uL
- RBC ([…], time 28 day): 760.5 x10_4/ul
- Ret ([…], time 28 day): 3.2%
- WBC ([…], time 28 day): 142.5 x10_2/uL
- KIDNEY_L ([…], time 7 day): 1.2 g
- KIDNEY_R ([…], time 7 day): 1.2 g
- KIDNEY_TOTAL ([…], time 7 day): 2.3 g
- KIDNEY_L ([…], time 14 day): 1.2 g
- KIDNEY_R ([…], time 14 day): 1.2 g
- KIDNEY_TOTAL ([…], time 14 day): 2.5 g
- KIDNEY_L ([…], time 28 day): 1.6 g
- KIDNEY_R ([…], time 28 day): 1.6 g
- KIDNEY_TOTAL ([…], time 28 day): 3.2 g
- LIVER ([…], time 7 day): 14.9 g
- LIVER ([…], time 14 day): 17 g
- LIVER ([…], time 28 day): 21.1 g
- A/G ([…], time 7 day): 2
- ALP ([…], time 7 day): 1331.4 IU/L
- ALT ([…], time 7 day): 37 IU/L
- AST ([…], time 7 day): 67.6 IU/L
- BUN ([…], time 7 day): 19.6 mg/dL
- CRE ([…], time 7 day): 0.5 mg/dL
- Ca ([…], time 7 day): 11.1 mg/dL
- Cl ([…], time 7 day): 105 meq/L
- DBIL ([…], time 7 day): 0.022 mg/dL
- GLC ([…], time 7 day): 196.8 mg/dL
- IP ([…], time 7 day): 5.8 mg/dL
- K ([…], time 7 day): 4.4 meq/L
- LDH ([…], time 7 day): 115.8 IU/L
- Na ([…], time 7 day): 141 meq/L
- PL ([…], time 7 day): 121 mg/dL
- RALB ([…], time 7 day): 3.8 g/dL
- TBIL ([…], time 7 day): 0.8 mg/dL
- TC ([…], time 7 day): 63.6 mg/dL
- TG ([…], time 7 day): 55.2 mg/dL
- TP ([…], time 7 day): 5.7 g/dL
- gamma-GTP ([…], time 7 day): 1 IU/L
- A/G ([…], time 14 day): 1.9
- ALP ([…], time 14 day): 903.6 IU/L
- ALT ([…], time 14 day): 36.6 IU/L
- AST ([…], time 14 day): 60.8 IU/L
- BUN ([…], time 14 day): 20.4 mg/dL
- CRE ([…], time 14 day): 0.5 mg/dL
- Ca ([…], time 14 day): 10.3 mg/dL
- Cl ([…], time 14 day): 105.2 meq/L
- DBIL ([…], time 14 day): 0.024 mg/dL
- GLC ([…], time 14 day): 185.6 mg/dL
- IP ([…], time 14 day): 5.3 mg/dL
- K ([…], time 14 day): 4.2 meq/L
- LDH ([…], time 14 day): 105.6 IU/L
- Na ([…], time 14 day): 140.8 meq/L
- PL ([…], time 14 day): 130.2 mg/dL
- RALB ([…], time 14 day): 3.9 g/dL
- TBIL ([…], time 14 day): 0.7 mg/dL
- TC ([…], time 14 day): 62.4 mg/dL
- TG ([…], time 14 day): 79.4 mg/dL
- TP ([…], time 14 day): 6.1 g/dL
- gamma-GTP ([…], time 14 day): 1.4 IU/L
- A/G ([…], time 28 day): 1.6
- ALP ([…], time 28 day): 768 IU/L
- ALT ([…], time 28 day): 34 IU/L
- AST ([…], time 28 day): 57 IU/L
- BUN ([…], time 28 day): 20.2 mg/dL
- CRE ([…], time 28 day): 0.6 mg/dL
- Ca ([…], time 28 day): 9.9 mg/dL
- Cl ([…], time 28 day): 103 meq/L
- DBIL ([…], time 28 day): 0.0525 mg/dL
- GLC ([…], time 28 day): 187 mg/dL
- IP ([…], time 28 day): 5 mg/dL
- K ([…], time 28 day): 4 meq/L
- LDH ([…], time 28 day): 72 IU/L
- Na ([…], time 28 day): 140 meq/L
- PL ([…], time 28 day): 117 mg/dL
- RALB ([…], time 28 day): 3.7 g/dL
- TBIL ([…], time 28 day): 0.9 mg/dL
- TC ([…], time 28 day): 54.8 mg/dL
- TG ([…], time 28 day): 57.8 mg/dL
- TP ([…], time 28 day): 6.2 g/dL
- gamma-GTP ([…], time 28 day): 1.5 IU/L
